# Data from paper PMC2820425 (Molecular Biology of the Cell, 2010).
# T1: rat dynamin (Rattus norvegicus, UniProt P21575)
# T1 sequence (P21575 1-864): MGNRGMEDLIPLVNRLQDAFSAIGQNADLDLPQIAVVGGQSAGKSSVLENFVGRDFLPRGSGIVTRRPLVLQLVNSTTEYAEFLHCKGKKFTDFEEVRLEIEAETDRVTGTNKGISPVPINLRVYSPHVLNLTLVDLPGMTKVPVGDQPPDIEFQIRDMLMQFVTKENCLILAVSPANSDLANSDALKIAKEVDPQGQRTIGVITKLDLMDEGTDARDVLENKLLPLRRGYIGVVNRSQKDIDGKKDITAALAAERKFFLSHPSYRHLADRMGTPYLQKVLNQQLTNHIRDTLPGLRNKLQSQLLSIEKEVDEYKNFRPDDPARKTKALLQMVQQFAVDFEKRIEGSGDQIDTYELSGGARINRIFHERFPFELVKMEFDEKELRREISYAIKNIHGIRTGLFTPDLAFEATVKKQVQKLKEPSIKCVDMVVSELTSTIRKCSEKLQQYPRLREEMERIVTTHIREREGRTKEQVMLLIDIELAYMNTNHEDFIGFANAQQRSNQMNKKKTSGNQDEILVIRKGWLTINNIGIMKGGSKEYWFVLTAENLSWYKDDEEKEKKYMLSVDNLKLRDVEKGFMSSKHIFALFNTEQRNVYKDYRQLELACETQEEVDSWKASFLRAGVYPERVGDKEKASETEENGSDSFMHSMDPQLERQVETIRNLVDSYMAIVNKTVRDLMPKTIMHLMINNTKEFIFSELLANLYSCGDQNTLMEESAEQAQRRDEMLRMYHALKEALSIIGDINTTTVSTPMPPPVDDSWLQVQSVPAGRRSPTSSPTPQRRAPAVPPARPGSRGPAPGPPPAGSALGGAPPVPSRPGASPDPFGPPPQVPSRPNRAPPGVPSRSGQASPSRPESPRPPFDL
# T2: DYN-1 (Caenorhabditis elegans, UniProt P39055)
# T2 sequence (P39055 1-830): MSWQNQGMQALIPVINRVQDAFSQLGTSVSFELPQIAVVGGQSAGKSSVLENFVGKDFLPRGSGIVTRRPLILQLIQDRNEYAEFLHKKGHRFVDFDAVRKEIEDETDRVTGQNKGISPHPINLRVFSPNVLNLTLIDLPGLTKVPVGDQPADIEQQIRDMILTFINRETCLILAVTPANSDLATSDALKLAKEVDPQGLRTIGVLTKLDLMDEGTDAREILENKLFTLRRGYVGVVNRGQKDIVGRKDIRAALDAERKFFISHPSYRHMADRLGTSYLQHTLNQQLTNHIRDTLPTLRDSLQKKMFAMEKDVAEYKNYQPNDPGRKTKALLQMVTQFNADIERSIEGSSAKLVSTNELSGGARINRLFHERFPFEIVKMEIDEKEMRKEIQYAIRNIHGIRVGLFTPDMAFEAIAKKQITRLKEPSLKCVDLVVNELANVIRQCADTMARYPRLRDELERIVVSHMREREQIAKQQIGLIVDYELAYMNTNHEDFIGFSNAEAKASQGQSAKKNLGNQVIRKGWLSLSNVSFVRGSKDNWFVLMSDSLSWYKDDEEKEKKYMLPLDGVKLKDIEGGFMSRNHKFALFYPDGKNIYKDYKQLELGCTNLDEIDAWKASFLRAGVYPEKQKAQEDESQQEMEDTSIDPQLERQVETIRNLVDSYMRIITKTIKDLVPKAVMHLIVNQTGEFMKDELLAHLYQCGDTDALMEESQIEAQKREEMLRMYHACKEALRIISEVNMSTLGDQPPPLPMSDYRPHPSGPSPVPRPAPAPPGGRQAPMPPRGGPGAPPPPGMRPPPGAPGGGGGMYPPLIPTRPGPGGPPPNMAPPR
# B1: recombinant DYN-1(G40E) purified from SF21 insect cells (natural protein, C. elegans, UniProt P39055 1-830, looked up)
# chain: MSWQNQGMQALIPVINRVQDAFSQLGTSVSFELPQIAVVEGQSAGKSSVLENFVGKDFLPRGSGIVTRRPLILQLIQDRNEYAEFLHKKGHRFVDFDAVRKEIEDETDRVTGQNKGISPHPINLRVFSPNVLNLTLIDLPGLTKVPVGDQPADIEQQIRDMILTFINRETCLILAVTPANSDLATSDALKLAKEVDPQGLRTIGVLTKLDLMDEGTDAREILENKLFTLRRGYVGVVNRGQKDIVGRKDIRAALDAERKFFISHPSYRHMADRLGTSYLQHTLNQQLTNHIRDTLPTLRDSLQKKMFAMEKDVAEYKNYQPNDPGRKTKALLQMVTQFNADIERSIEGSSAKLVSTNELSGGARINRLFHERFPFEIVKMEIDEKEMRKEIQYAIRNIHGIRVGLFTPDMAFEAIAKKQITRLKEPSLKCVDLVVNELANVIRQCADTMARYPRLRDELERIVVSHMREREQIAKQQIGLIVDYELAYMNTNHEDFIGFSNAEAKASQGQSAKKNLGNQVIRKGWLSLSNVSFVRGSKDNWFVLMSDSLSWYKDDEEKEKKYMLPLDGVKLKDIEGGFMSRNHKFALFYPDGKNIYKDYKQLELGCTNLDEIDAWKASFLRAGVYPEKQKAQEDESQQEMEDTSIDPQLERQVETIRNLVDSYMRIITKTIKDLVPKAVMHLIVNQTGEFMKDELLAHLYQCGDTDALMEESQIEAQKREEMLRMYHACKEALRIISEVNMSTLGDQPPPLPMSDYRPHPSGPSPVPRPAPAPPGGRQAPMPPRGGPGAPPPPGMRPPPGAPGGGGGMYPPLIPTRPGPGGPPPNMAPPR
# Assays:
# rat dynamin = molecular target: T1, rat dynamin; test: […] release from [γ-32P]GTP, charcoal assay; type: biochemical; conditions: 1 mM GTP, 150 mM NaCl, with or without lipid; labelled compound
# DYN-1 = molecular target: T2, DYN-1; test: […] release from [γ-32P]GTP, charcoal assay; type: biochemical; conditions: 1 mM GTP, 150 mM NaCl, with or without lipid; labelled compound
# [1] = molecular target: the molecule itself; test: cryo-TEM of protein incubated with liposomes
Molecule,"32P release from [γ-32P]GTP, charcoal assay (rat dynamin)","32P release from [γ-32P]GTP, charcoal assay (DYN-1)",binding result [1]
Nc1nc2c(ncn2[C@@H]2O[C@H](COP(=O)(O)OP(=O)(O)OP(=O)(O)O)[C@@H](O)[C@H]2O)c(=O)[nH]1 [GTP],DYN-1 displayed a low basal-level GTP hydrolysis activity as rat dynamin did,C. elegans DYN-1 displayed a low basal-level GTP hydrolysis activity,–
B1,–,–,binds
